Structures are written as SMILES.

The target in this assay is T1, human PPARα (Homo sapiens, UniProt Q07869).
T1 construct: The coding region of a human PPARα cDNA was inserted downstream of the CMV promoter; expressed in transfected cells; host or cells: Cos-7 cells, transient transfection (pcDNA3.1(−)-PPARα, pRSV-RXRα, 3xPPRE-TK-luc reporter, pRL-TK)
T1 sequence (Q07869 1-468): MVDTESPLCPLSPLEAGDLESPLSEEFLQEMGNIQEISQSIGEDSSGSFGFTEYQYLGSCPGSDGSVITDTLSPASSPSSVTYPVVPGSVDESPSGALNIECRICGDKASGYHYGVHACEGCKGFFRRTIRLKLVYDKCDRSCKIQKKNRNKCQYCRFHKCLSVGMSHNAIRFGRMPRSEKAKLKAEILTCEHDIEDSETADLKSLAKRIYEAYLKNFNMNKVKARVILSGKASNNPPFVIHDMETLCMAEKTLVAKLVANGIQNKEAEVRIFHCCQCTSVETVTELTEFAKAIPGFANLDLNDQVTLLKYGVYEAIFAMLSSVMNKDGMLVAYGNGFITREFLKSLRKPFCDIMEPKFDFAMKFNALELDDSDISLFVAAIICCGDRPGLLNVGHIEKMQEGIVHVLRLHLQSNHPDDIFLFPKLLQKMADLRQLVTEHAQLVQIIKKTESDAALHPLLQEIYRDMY
T1 sequence (P19793 1-462 partner): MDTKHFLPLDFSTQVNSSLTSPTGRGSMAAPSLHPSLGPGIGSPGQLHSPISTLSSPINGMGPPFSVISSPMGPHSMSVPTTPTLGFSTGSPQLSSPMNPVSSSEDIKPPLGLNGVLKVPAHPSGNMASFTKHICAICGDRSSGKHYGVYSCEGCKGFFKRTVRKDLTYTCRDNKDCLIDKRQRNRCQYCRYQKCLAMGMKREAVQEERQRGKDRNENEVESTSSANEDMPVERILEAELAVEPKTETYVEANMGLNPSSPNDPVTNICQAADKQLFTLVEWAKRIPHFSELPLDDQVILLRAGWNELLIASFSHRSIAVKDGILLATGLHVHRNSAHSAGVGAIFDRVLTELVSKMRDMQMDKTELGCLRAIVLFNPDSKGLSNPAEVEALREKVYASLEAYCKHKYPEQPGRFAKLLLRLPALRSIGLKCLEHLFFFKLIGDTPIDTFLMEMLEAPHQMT
As to the kind of experiment: PPARα reporter gene assay (firefly luciferase, transiently transfected Cos-7 cells). It counts as cell-based. Conditions: for Result (superior activity class achieved): class reached; for Pass at (lowest tested administration level at which the test material passed): pass = activation greater than oleic acid at 100 μM, commonly >1.57 times vehicle control, 24 h treatment. From the text: One convenient reporter assay for determining whether a fatty acid material is PPARα activating is based upon the firefly luciferase gene.
Fatty acids were screened to identify PPAR activating fatty acids using a reporter assay.
This assay relied on ligands binding to and activating the PPARα protein, which, in turn, activated genes under the control of PPAR response elements (PPRE). In the assay, the firefly luciferase gene was cloned behind a promoter containing 3 copies of the fatty acid binding protein PPRE.
The assay was performed by transient transfection of Cos-7 cells with a mixture of four DNA plasmids. These were:
1) PPAR reporter gene construct (Modified pNF-KB-luc reporter vector (Firefly luciferase reporter vector commercially available form Clontech (NF-kB response element, TK minimal promoter, luc^+, f1 origin, pUC origin, amp^r)). A tandem repeat of 3 PPAR response elements (PPREs) corresponding to the PPRE found in the fatty acid binding protein promoter was inserted upstream of the minimal TK promoter to replace the NF-κB response element);
2) 2) Over-expressing PPARα construct (Modified pcDNA3.1(−) vector (A mammalian expression vector commercially available from Invitrogen (CMV promoter, f1 origin, SV40 origin, ColE1 origin, neo^r, amp^r)). The coding region of a human PPARα cDNA was inserted downstream of the CMV promoter of pcDNA3.1 (−)). […] The coding region of a human RXRα cDNA has been inserted downstream of the RSV promoter. (Gift of V. K. K. Chatterjee, Addenbrooke's Hospital, Cambridge)) 4) Control luciferase construct (pRL-TK Renilla luciferase reporter vector commercially available from Promega (HSV-TK promoter, T7 promoter, Rluc^+, ori, amp^r)). For the transfection, DNA was made up as a mix of PPAR reporter gene: PPARα: RXRα: control in the ratio 40:4:3:3.
Cos-7 cells were grown in Dulbecco's modified Eagle's Medium, also herein referred to as DMEM with 10% foetal calf serum, herein also referred to as FCS at 37° C., 5% CO2 to 80% confluency. Cells were then plated out in 24 well plates at 50,000 cells per well and incubated overnight in DMEM with 10% FCS at 37° C., 5% CO2. Cells were then transfected using the LipofectAMINE reagent (GibcoBRL). For each well 0.4 μg of DNA mix (in 25 μl of DMEM) was incubated with 1 μl LipofectAMINE (in 25 μl of DMEM) for 45 minutes. The mixture was then made up to 250 μl per well and added to the cells, which had been washed with 1 ml of DMEM. Cells were then incubated for 5 hours at 37° C., 5% CO2 and 250 μl DMEM with 10% SBCS (charcoal stripped bovine calf serum) added. Cells were incubated for 18 hours at 37° C., 5% CO2 before being treated with the appropriate compound/extract. Test compounds were made up as 1000× stocks (in DMSO or ethanol as appropriate) and diluted into DMEM with 10% SBCS (500 μl per well) immediately before being added to cells. Each treatment was performed in triplicate. The transfection mix was removed from the cells and replaced with the treatment mix, and incubated for 24 hours at 37° C., 5% CO2. Cells were washed with 1 ml of PBS (without calcium or magnesium) and then lysed with 100 μl per well of 1× Passive Lysis Buffer (as supplied with Promega Dual Luciferase assay kit). Lysis was allowed to continue for 15 minutes and then the lysate was assayed for Firefly and Renilla luciferase activity using the Promega Dual Luciferase assay kit. For the assay, 20 μl of lysate was taken and assayed as described in the kit instructions using a MLX microtiter™ plate luminometer (Dynex).
Firefly luciferase activity (PPAR driven) was normalised against the Renilla luciferase value for that well and the mean calculated for the three wells treated with the same agent. Activity was then expressed as fold activation over the vehicle (DMSO or ethanol) control values for that particular plate.
On the technique in general: In a reporter assay the amount or activity of a reporter protein is the signal.

As to `CCCCCC=CC/C=C\CCCCCCCCCC(=O)O` [cis-11,14-eicosadienoic acid], the “Result at (lowest administration level at which super or MS activity was achieved)” value was 100 μm, the “Result (superior activity class achieved)” value was “MS (more superior activity [MS] (100% higher—at least 3 times PPARα activation))” and the “Pass at (lowest tested administration level at which the test material passed)” value (shortened to “Pass”) turned out to be 10 μm.
For `CCCCCC=CC/C=C\CCCCCCCCCCCC(=O)O` [cis 13,16 docosadienoic acid], the “Pass” value is reported as 10 μm.
On to `CCCCCCCCCC/C=C/CCCCCC(=O)O` [Trans-7-octadecenoic acid], for which the “Result at (lowest administration level at which super or MS activity was achieved)” value turned out to be 10 μm, the “Result (superior activity class achieved)” value was “MS (more superior activity [MS] (100% higher—at least 3 times PPARα activation))” and the “Pass” value came to 10 μm.
On to `CCCCCCCCCCCCCC/C=C\CCCC(=O)O` [cis-5 eicosenoic acid], for which the “Result at (lowest administration level at which super or MS activity was achieved)” value amounted to 100 μm, the “Result (superior activity class achieved)” value is “MS (more superior activity [MS] (100% higher—at least 3 times PPARα activation))” and the “Pass” value came to 10 μm.
For `CCCCCC/C=C/CCCCCCCCCC(=O)O` [trans vaccenic acid], the “Pass” value is recorded as 10 μm.
On to `CCC=CCC=CCC=CCC=CCC=CC/C=C\CCC(=O)O` [cis-4,7,10,13,16,19 docosahexenoic acid], for which the “Pass” value was found to be 10 μm.
Turning to `CCCC/C=C/CCCCCCCCCCCC(=O)O` [Trans-13-octadecenoic acid], the “Pass” value was 10 μm.
As for `CCCCCCCC/C=C\CCCCCCCC(=O)O` [Oleic acid, reference compound], the “PPARα activation compared with the vehicle control” value (100 μM, base-line) was “Base-line Oleic acid (1.57 at 100 μM) times”.
As for `CCCCCC[C@@H](O)C/C=C\CCCCCCCC(=O)O` [Ricinoleic acid, ricinoleic acid], the “Pass” value is given as 10 μm.
As for `CCCCC/C=C\C/C=C\CC/C=C/CCCC(=O)O` [Columbinic acid, columbinic acid], the “Result at (lowest administration level at which super or MS activity was achieved)” value amounted to 25 μm, the “Result (superior activity class achieved)” value was “super (superior activity [super] (50% higher—at least 2.25 times PPARα activation))” and the “Pass” value was 10 μm.
For the compound `CCCC/C=C\CCCCCCCCCCCC(=O)O` [cis-13-octadecenoic acid], the “Pass” value stood at 50 μm.
As to `CCCCCCCC/C=C/CCCCCCCC(=O)O` [Elaidic acid], the “Pass” value was 100 μm.
With `CCCCCCCCC#CCCCCCCCC(=O)O` [Stearolic acid], the “Pass” value turned out to be 10 μm.
Regarding `CCCCC/C=C\C/C=C\CCCCCCCC(=O)O` [Linoleic acid], the “Result at (lowest administration level at which super or MS activity was achieved)” value amounted to 100 μm, the “Result (superior activity class achieved)” value is “super (superior activity [super] (50% higher—at least 2.25 times PPARα activation))” and the “Pass” value is on record as 10 μm.
For `CCCCCCCCCCC/C=C/CCCCC(=O)O` [Petroselaidic acid], the “Result at (lowest administration level at which super or MS activity was achieved)” value is given as 100 μm, the “Result (superior activity class achieved)” value is “super (superior activity [super] (50% higher—at least 2.25 times PPARα activation))” and the “Pass” value stood at 50 μm.
Take `Cc1cccc(Nc2cc(Cl)nc(SCC(=O)O)n2)c1C` [WY14,643, reference compound]: the “Result at (lowest administration level at which super or MS activity was achieved)” value is on record as 100 μm, the “Result (superior activity class achieved)” value is “super (superior activity [super] (50% higher—at least 2.25 times PPARα activation))” and the “Pass” value came out at 10 μm.
With `CCCCC/C=C/CCCCCCCCCCC(=O)O` [trans-12-octadecenoic acid], the “Pass” value was 100 μm.
In the case of `CCCCCC/C=C\CCCCCCCC(=O)O` [Palmitoleic acid], the “Pass” value was found to be 50 μm.
Regarding `CCCCCC/C=C/C=C/CCCCCCCC(=O)O` [CLA (t9, t11)], the “Result at (lowest administration level at which super or MS activity was achieved)” value is reported as 100 μm, the “Result (superior activity class achieved)” value is “MS (more superior activity [MS] (100% higher—at least 3 times PPARα activation))” and the “Pass” value came to 50 μm.
Turning to `CC/C=C\C/C=C\C/C=C\C/C=C\CCCCC(=O)O` [Stearidonic/octadecatetraenoic acid, stearidonic acid], the “Result at (lowest administration level at which super or MS activity was achieved)” value worked out at 25 μm, the “Result (superior activity class achieved)” value is “super (superior activity [super] (50% higher—at least 2.25 times PPARα activation))” and the “Pass” value is given as 25 μm.
For the compound `CCCCCC=CCC=CCC=CC/C=C\CCCCCC(=O)O` [cis-7,10,13,16 docosatetraenoic acid], the “Result at (lowest administration level at which super or MS activity was achieved)” value stood at 100 μm, the “Result (superior activity class achieved)” value was “super (superior activity [super] (50% higher—at least 2.25 times PPARα activation))” and the “Pass” value amounted to 100 μm.
Regarding `CCCCCCC(O)CCCCCCCCCCC(=O)O` (stereo not shown) [12-hydroxystearic acid], the “Result at (lowest administration level at which super or MS activity was achieved)” value is given as 25 μm, the “Result (superior activity class achieved)” value was “MS (more superior activity [MS] (100% higher—at least 3 times PPARα activation))” and the “Pass” value stood at 10 μm.
As to `CC/C=C\CCCCCCCCCCCCCC(=O)O` [cis-15-octadecanoic acid], the “Pass” value is 100 μm.
Turning to `CCCCC/C=C/C/C=C/CCCCCCCC(=O)O` [Linolelaidic acid], the “Pass” value is 25 μm.

These data come from patent US6713051B2, “Antiperspirant or deodorant compositions” (Unilever Home & Personal Care USA division of Conopco, Inc., priority 2001, dated 2004).
